In article PMC5923142, “Selection and Characterization of Rupintrivir-Resistant Norwalk Virus Replicon Cells In Vitro” (Antimicrobial Agents and Chemotherapy, 2018):

Key:
[1] = system: rupintrivir-resistant Norwalk virus replicon; assay: Susceptibility of rupintrivir-resistant replicon cells, all clones (qRT-PCR); format: cell-based, Human norovirus (HuNoV) GI; details: resistant clones vs DMSO-passaged cells
Description: (§1) Given the potent effects of rupintrivir on HGT-NV cells, we sought to determine whether rupintrivir-resistant replicons could be generated. To this end, HGT-NV cells were treated with 5 μM rupintrivir for 12 days in the absence of G418 selection, followed by subsequent passages in the presence of G418 with increasing concentrations of rupintrivir for up to 45 days (Fig. 1D). This approach yielded three lineages of replicon cells which were resistant to 10, 15, and 20 μM rupintrivir. To identify the mutations conferring the resistance to rupintrivir, we isolated cell clones by limiting dilution using replicon cells surviving after 45 days of culture and then evaluated the rupintrivir sensitivity of the replicon cells. […] All clones treated with 10 μM rupintrivir had the I109V single amino acid substitution, while the A105V/I109V double amino acid substitution was observed only in clones treated with 15 and 20 μM rupintrivir. […]
(§2) The inhibitory effect of rupintrivir on HuNoV replication was assessed by quantification of the levels of GI NuNoV RNA and β-actin RNA as the reference gene. […] The real-time quantitative reverse transcription-PCR (qRT-PCR) assay was performed by using a One-Step Plus qRT-PCR kit according to the protocol of the manufacturer (Primer Design). […] Relative quantification was performed using the 2^−ΔΔCT threshold cycle (CT) method ([38]). […]

[2] = system: Norwalk virus replicon; assay: Susceptibility of HGT-NV replicon cells passaged in parallel in DMSO (qRT-PCR); format: cell-based, Human norovirus (HuNoV) GI
Description: as §1, §2

[3] = biological target: T1, GV WT protease (Norovirus, UniProt Q80J95); assay: Cell-based FRET assay, GV WT protease; parameters: species or system murine norovirus (MNV) GV (DQ285629); details: HEK293T cells, GV NS1/2-NS3 FRET substrate
T1 construct: plasmids expressing norovirus protease from GI.1 (M87661), GII.4 (DQ658413), or GV (DQ285629) norovirus; expressed in transfected cells; host or cells: HEK293T
T1 sequence (Q80J95 995-1177 limits assumed): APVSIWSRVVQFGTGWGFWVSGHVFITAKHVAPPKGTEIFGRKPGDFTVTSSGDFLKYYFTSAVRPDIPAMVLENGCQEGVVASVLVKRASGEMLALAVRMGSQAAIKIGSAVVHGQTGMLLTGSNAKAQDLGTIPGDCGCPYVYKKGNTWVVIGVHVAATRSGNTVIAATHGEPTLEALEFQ
Text: (§3) The generation of plasmids expressing norovirus protease from GI.1 (M87661), GII.4 (DQ658413), or GV (DQ285629) norovirus and FRET assay constructs has been described previously ([18]). The plasmids carrying GI, GII, and GV proteases with the A105V, I109V, or A105V/I109V mutation were generated from the wild-type (WT) protease constructs described above by the QuikChange site-directed mutagenesis method. Mutant MNV genomes for reverse genetics were generated by two-step PCR mutagenesis of the WT MNV genome (pT7 MNV 3RZ) construct as described previously ([27]). The primers used for generation of the plasmids are listed in Tables S1 and S2 in the supplemental material.
(§4) The YFP/CFP ratio was used to determine FRET efficiency, as described previously ([18], [40]). Briefly, HEK293T cells were plated into black 96-well cell culture microplates (Greiner Bio-One) at a density of 5 × 10^4 cells/well in 100 μl of DMEM containing 10% fetal bovine serum with or without various concentrations of rupintrivir and then incubated for 4 h in a CO2 incubator at 37°C. […] The plates were then analyzed on a SpectraMax i3 instrument in fluorescence mode, with excitation set at 434 nm and the reading emissions set at 477 nm (CFP) and 527 nm (YFP). The background fluorescence from wells transfected with pcDNA3.1 was determined and subtracted. […]

[4] = biological target: T2, GI WT protease (Norovirus, UniProt Q83883); assay: Cell-based FRET assay, GI WT protease; parameters: species or system norovirus GI.1 (M87661); details: HEK293T cells, GI NS1/2-NS3 FRET substrate; read-out: 50% inhibitory concentration (IC50)
T2 construct: plasmids expressing norovirus protease from GI.1 (M87661); expressed in transfected cells; host or cells: HEK293T
T2 sequence (Q83883 1101-1281): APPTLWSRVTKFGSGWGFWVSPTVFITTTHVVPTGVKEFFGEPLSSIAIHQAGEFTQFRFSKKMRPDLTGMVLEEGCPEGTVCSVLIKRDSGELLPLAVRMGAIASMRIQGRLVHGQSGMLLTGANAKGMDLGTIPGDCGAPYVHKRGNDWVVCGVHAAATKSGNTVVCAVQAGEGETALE
Text: as §3, §4

With `CCOC(=O)/C=C/[C@H](C[C@@H]1CCNC1=O)NC(=O)[C@@H](CC(=O)[C@@H](NC(=O)c1cc(C)on1)C(C)C)Cc1ccc(F)cc1` [rupintrivir, Rupintrivir] the fold reduced sensitivity [1] was 4- to 11 fold, the “Fold change in sensitivity” value ([2]; DMSO-passaged cells, relative to DMSO) was 1.0 and the EC50 ([2]; Norwalk virus, read-out: Mean EC50 ± SD) was 1300 ± 200 nM. The IC50 [3] was 1000 ± 100 nM and the IC50 [4] was 1300 ± 400 nM.
